One may read the AUC(0-t) as exposure summed from dosing to a finite time, without extrapolation to infinity. Lower therefore signals low exposure. As a reminder, the Cmax is the peak of the concentration-time curve. One may read the Tmax as the time at which the peak concentration occurs.

These results are taken from patent US20240270786A1, “STEROID COMPOUNDS” (Epirium Bio Inc., priority 2022, published 2024).

This data set in a line: Pharmacokinetics: quantitative determination of compounds in mice brains. It is filed as in vivo, C57BL/6 Mice. The conditions noted are these: C57BL/6, mouse, brain, 10 mg/kg PO single dose, vehicle 10% NMP. The procedure: C57BL/6 Mice, Age 7-9 weeks, body weight range 20-25 g were used. The mice were fasted overnight. Mice were dosed once a day for a single day at 10 mg/kg, 10 mg/kg. 6 time-points were used for whole blood. 10% NMP was used as a vehicle. 9 animals were used per treatment, with three groups of three animals each. Group 1 had time points at 15 and 60 minutes, Group 2 had time points at 30 and 120 minutes, and Group 3 had time points at 90 and 240 minutes. An Oral (PO) route was used. Plasma and brain samples were collected (brain sample collected at terminal time point). Plasma was collected through the centrifugation of whole blood at 10,000 rpm for 10 minutes at 4° C. Samples were stored at −80° C. until processing.
1.00 mg/mL in 100% MeOH PP vials (prepared at RT yellow light) at 2-8° C. were used as stock solution. 12.22-50000 ng/mL using 80% MeOH PP vials (prepared at RT yellow light) at 2-8° C. were used as working solution. 0.48-2000 ng/mL (prepared at RT yellow light) was used for the curve range. For Compounds 26, 40, and 50, 1.00 mg/mL of Compound 53 in 100% methanol Ria vials (Prepared at RT yellow light) was used as IS stock solution, and 80 ng/mL of Compound 53 in 80% methanol (Prepared at RT yellow light) was used as IS working solution. For Compound 36, 1.00 mg/mL of Compound 47 in 100% methanol Ria vials (Prepared at RT yellow light) was used as IS stock solution, and 80 ng/mL of Compound 47 in 80% methanol (Prepared at RT yellow light) was used as IS working solution. A linear, 1/×2 fit type was used. The injection volume was 10 μL for Compounds 26 and 36, and 5 μL for Compounds 40 and 50. Mobile Phase A was 0.1% Formic Acid in water at room temperature. Mobile Phase B was 100% methanol at room temperature. R0 wash solution was 80% methanol at room temperature. R3 wash solution was IPA/MeOH/ACN/water (1:1:1:1) at room temperature. The column was Agilent Eclipse 50*2.1 mm 1.8 μm and the instrument was Shimadzu LC-40 UPLC and AB Sciez 6500+ with LCMS002.
100 mg of brain tissue were weighed, 400 μL of Ice cold PBS was added, and samples were homogenated using polytron homogenizer. Before starting the experiment the blade was cleaned with NS, Methanol, Methanol: Water (50:50) followed by NS. Using a pipette with Methanol-rinsed pipette tips, homogenate 50 μL of each sample (calibration curve sample, QC samples and blank matrix) was aliquoted to labeled 1.5 ml Ependorfs. Using a pipette, 5.0 μL of IS of conc. 80 ng (Cocktail IS) was aliquoted to each standards and samples except Blank. All tubes were mixed on a multi-tube vortex for approximately 30 seconds. 1 ml of tert-butyl methyl ether (TBME) was added. All tubes were mixed on a multi-tube vortex for approximately 5 minutes then centrifuged for 10 min at 5,000 rpm, 4° C. The sample was kept in methanol containing dry ice for few seconds to freeze the Aqueous layer (flash freeze method). The upper organic layer was poured from the frozen tubes into the labeled 12×75-mm rial vials and evaporated to dryness under nitrogen using Liquid Evaporator (30° C., ˜15 psi, ˜10 mins). 200 μl of reconstitution solution (0.1% Formic Acid: MeOH (20:80 v/v) were added into each tube. The samples were vortexed for 30 seconds then transferred to amber glass injection vials for injection.
At the terminal time points, animals were euthanized after blood sample collection. Their skulls were opened and whole brains were separated and collected in previously labeled tubes. The tubes were then immediately transferred into liquid nitrogen container for snap freezing. Later the samples were stored at −80° C.

Regarding `CNC(=O)[C@H]1CCC2C3CC=C4N(C)C(=O)CC[C@]4(C)C3[C@@H](O)C[C@@]21C` (stereo partly drawn) [Compound 40, (4aR,5S,6aS)-5-hydroxy-N,1,4a,6a-tetramethyl-2-oxo-2,3,4,4a,4b,5,6,6a,7,8,9,9a,9b,10-tetradecahydro-1H-indeno[5,4-f] quinoline-7-carboxamide], the AUC(0-t) came out at 2500 ng·h/mL, the Cmax turned out to be 1680 ng/mL and the time of peak concentration (Tmax) turned out to be 1 h.

Take `CC(C)CCNC(=O)C1CCC2C3CC=C4N(C)C(=O)CC[C@]4(C)C3[C@@H](O)C[C@]12C` (stereo partly drawn) [Compound 36, (4aR,5S,6aS)-5-hydroxy-N-isopentyl-1,4a,6a-trimethyl-2-oxo-2,3,4,4a,4b,5,6,6a,7,8,9,9a,9b,10-tetradecahydro-1H-indeno[5,4-f]quinoline-7-carboxamide]: the AUC(0-t) came out at 1640 ng·h/mL, the peak level (Cmax) was 1160 ng/mL and the Tmax came out at 1 h.

Take `CN1C(=O)CC[C@@]2(C)C1=CCC1C2[C@@H](O)C[C@@]2(C)C1CC[C@@H]2NC(=O)C1CC1` (stereo partly drawn) [Compound 26, N-((4aR,5S,6aS,7S)-5-hydroxy-1,4a,6a-trimethyl-2-oxo-2,3,4,4a,4b,5,6,6a,7,8,9,9a,9b,10-tetradecahydro-1H-indeno[5,4-f]quinolin-7-yl)cyclopropanecarboxamide]: the AUC(0-t) was 487 ng·h/mL, the highest level (Cmax) was 433 ng/mL and the Tmax was 1 h.
